# Legend:
# Test in all cases: relative viability (nuclei count vs DMSO), 5 days (fraction); higher = more cells survive
# VX-11e + Navitoclax = compound: CC1=CN=C(N=C1C2=CNC(=C2)C(=O)N[C@H](CO)C3=CC(=CC=C3)Cl)NC4=C(C=C(C=C4)F)Cl [VX-11e] + CC1(C)CCC(c2ccc(Cl)cc2)=C(CN2CCN(c3ccc(C(=O)NS(=O)(=O)c4ccc(N[C@H](CCN5CCOCC5)CSc5ccccc5)c(S(=O)(=O)C(F)(F)F)c4)cc3)CC2)C1 [Navitoclax] (partner 0.5 µM)
# Method in brief: (§1)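 The day after seeding in 1536-well plates, lung cancer cell lines were treated by pin tool with a single drug, or with a fixed anchor-drug dose together with five library-drug doses (not always all listed) in √10 steps. After 5 days, a combined fix-and-stain solution (final 0.05% Triton X-100, 1% formaldehyde, 1 ug/ml Hoechst) was added. Nuclei counted on 4× images gave relative viability as treated counts over vehicle counts, reported as the median of duplicate plates.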
# VX-11e + Linsitinib = compound: CC1=CN=C(N=C1C2=CNC(=C2)C(=O)N[C@H](CO)C3=CC(=CC=C3)Cl)NC4=C(C=C(C=C4)F)Cl [VX-11e] + C[C@]1(O)C[C@@H](c2nc(-c3ccc4ccc(-c5ccccc5)nc4c3)c3c(N)nccn32)C1 [Linsitinib] (partner 1 µM)
# Method in brief: as §1
# VX-11e + Vorinostat = compound: CC1=CN=C(N=C1C2=CNC(=C2)C(=O)N[C@H](CO)C3=CC(=CC=C3)Cl)NC4=C(C=C(C=C4)F)Cl [VX-11e] + O=C(CCCCCCC(=O)Nc1ccccc1)NO [Vorinostat] (partner 1 µM)
# Method in brief: as §1
# VX-11e + Alpelisib = compound: CC1=CN=C(N=C1C2=CNC(=C2)C(=O)N[C@H](CO)C3=CC(=CC=C3)Cl)NC4=C(C=C(C=C4)F)Cl [VX-11e] + Cc1nc(NC(=O)N2CCC[C@H]2C(N)=O)sc1-c1ccnc(C(C)(C)C(F)(F)F)c1 [Alpelisib] (partner 2 µM)
# Method in brief: as §1
cell line,measurement,setting,value
NCI-H1437,relative viability,VX-11e + Navitoclax; first compound 0.04 µM,1.11
same,relative viability,VX-11e + Navitoclax; first compound 0.1265 µM,1.05
same,relative viability,VX-11e + Navitoclax; first compound 0.4 µM,1.07
same,relative viability,VX-11e + Navitoclax; first compound 1.265 µM,0.815
same,relative viability,VX-11e + Navitoclax; first compound 4 µM,0.52
same,relative viability,VX-11e + Linsitinib; first compound 0.04 µM,1.03
same,relative viability,VX-11e + Linsitinib; first compound 0.1265 µM,1.05
same,relative viability,VX-11e + Linsitinib; first compound 0.4 µM,0.888
same,relative viability,VX-11e + Linsitinib; first compound 1.265 µM,0.409
same,relative viability,VX-11e + Linsitinib; first compound 4 µM,0.203
same,relative viability,VX-11e + Vorinostat; first compound 0.04 µM,0.82
same,relative viability,VX-11e + Vorinostat; first compound 0.1265 µM,0.864
same,relative viability,VX-11e + Vorinostat; first compound 0.4 µM,0.82
same,relative viability,VX-11e + Vorinostat; first compound 1.265 µM,0.739
same,relative viability,VX-11e + Vorinostat; first compound 4 µM,0.458
same,relative viability,VX-11e + Alpelisib; first compound 0.04 µM,0.996
same,relative viability,VX-11e + Alpelisib; first compound 0.1265 µM,0.869
same,relative viability,VX-11e + Alpelisib; first compound 0.4 µM,0.891
same,relative viability,VX-11e + Alpelisib; first compound 1.265 µM,0.642
same,relative viability,VX-11e + Alpelisib; first compound 4 µM,0.247
NCI-H2009,relative viability,VX-11e + Navitoclax; first compound 0.04 µM,1.17
same,relative viability,VX-11e + Navitoclax; first compound 0.1265 µM,1.14
same,relative viability,VX-11e + Navitoclax; first compound 0.4 µM,1.2
same,relative viability,VX-11e + Navitoclax; first compound 1.265 µM,0.938
same,relative viability,VX-11e + Navitoclax; first compound 4 µM,0.289
same,relative viability,VX-11e + Linsitinib; first compound 0.04 µM,1.17
same,relative viability,VX-11e + Linsitinib; first compound 0.1265 µM,1.11
same,relative viability,VX-11e + Linsitinib; first compound 0.4 µM,1.18
same,relative viability,VX-11e + Linsitinib; first compound 1.265 µM,1.09
same,relative viability,VX-11e + Linsitinib; first compound 4 µM,0.259
same,relative viability,VX-11e + Vorinostat; first compound 0.04 µM,0.794
same,relative viability,VX-11e + Vorinostat; first compound 0.1265 µM,0.604
same,relative viability,VX-11e + Vorinostat; first compound 0.4 µM,0.638
same,relative viability,VX-11e + Vorinostat; first compound 1.265 µM,0.791
same,relative viability,VX-11e + Vorinostat; first compound 4 µM,0.233
same,relative viability,VX-11e + Alpelisib; first compound 0.04 µM,1.2
same,relative viability,VX-11e + Alpelisib; first compound 0.1265 µM,1.1
same,relative viability,VX-11e + Alpelisib; first compound 0.4 µM,1.07
same,relative viability,VX-11e + Alpelisib; first compound 1.265 µM,0.571
same,relative viability,VX-11e + Alpelisib; first compound 4 µM,0.285
NCI-H1395,relative viability,VX-11e + Navitoclax; first compound 0.04 µM,1.16
same,relative viability,VX-11e + Navitoclax; first compound 0.1265 µM,0.999
same,relative viability,VX-11e + Navitoclax; first compound 0.4 µM,0.832
same,relative viability,VX-11e + Navitoclax; first compound 1.265 µM,1.06
same,relative viability,VX-11e + Navitoclax; first compound 4 µM,0.659
same,relative viability,VX-11e + Linsitinib; first compound 0.04 µM,1.17
same,relative viability,VX-11e + Linsitinib; first compound 0.1265 µM,1.29
same,relative viability,VX-11e + Linsitinib; first compound 0.4 µM,0.846
same,relative viability,VX-11e + Linsitinib; first compound 1.265 µM,0.963
same,relative viability,VX-11e + Linsitinib; first compound 4 µM,0.718
same,relative viability,VX-11e + Vorinostat; first compound 0.04 µM,0.573
same,relative viability,VX-11e + Vorinostat; first compound 0.1265 µM,0.683
same,relative viability,VX-11e + Vorinostat; first compound 1.265 µM,0.661
same,relative viability,VX-11e + Vorinostat; first compound 4 µM,0.479
same,relative viability,VX-11e + Alpelisib; first compound 0.04 µM,1.08
same,relative viability,VX-11e + Alpelisib; first compound 0.1265 µM,0.916
same,relative viability,VX-11e + Alpelisib; first compound 0.4 µM,0.745
same,relative viability,VX-11e + Alpelisib; first compound 1.265 µM,1.04
same,relative viability,VX-11e + Alpelisib; first compound 4 µM,0.675
PC-3 [JPC-3],relative viability,VX-11e + Navitoclax; first compound 0.04 µM,0.786
same,relative viability,VX-11e + Navitoclax; first compound 0.1265 µM,0.803
same,relative viability,VX-11e + Navitoclax; first compound 0.4 µM,0.682
same,relative viability,VX-11e + Navitoclax; first compound 1.265 µM,0.831
same,relative viability,VX-11e + Navitoclax; first compound 4 µM,0.743
same,relative viability,VX-11e + Linsitinib; first compound 0.04 µM,1.08
same,relative viability,VX-11e + Linsitinib; first compound 0.1265 µM,0.959
same,relative viability,VX-11e + Linsitinib; first compound 0.4 µM,0.99
same,relative viability,VX-11e + Linsitinib; first compound 1.265 µM,1.09
same,relative viability,VX-11e + Linsitinib; first compound 4 µM,0.822
same,relative viability,VX-11e + Vorinostat; first compound 0.04 µM,0.752
same,relative viability,VX-11e + Vorinostat; first compound 0.1265 µM,0.708
same,relative viability,VX-11e + Vorinostat; first compound 0.4 µM,1.01
same,relative viability,VX-11e + Vorinostat; first compound 1.265 µM,0.646
same,relative viability,VX-11e + Vorinostat; first compound 4 µM,0.755
same,relative viability,VX-11e + Alpelisib; first compound 0.04 µM,1.03
same,relative viability,VX-11e + Alpelisib; first compound 0.1265 µM,1.02
same,relative viability,VX-11e + Alpelisib; first compound 0.4 µM,1
same,relative viability,VX-11e + Alpelisib; first compound 1.265 µM,1.15
same,relative viability,VX-11e + Alpelisib; first compound 4 µM,0.827
NCI-H2342,relative viability,VX-11e + Vorinostat; first compound 0.1265 µM,0.79
same,relative viability,VX-11e + Vorinostat; first compound 0.4 µM,0.862
same,relative viability,VX-11e + Vorinostat; first compound 1.265 µM,0.843
same,relative viability,VX-11e + Vorinostat; first compound 4 µM,0.73
NCI-H358,relative viability,VX-11e + Linsitinib; first compound 0.04 µM,0.738
same,relative viability,VX-11e + Linsitinib; first compound 0.1265 µM,0.52
same,relative viability,VX-11e + Linsitinib; first compound 1.265 µM,0.558
same,relative viability,VX-11e + Linsitinib; first compound 4 µM,0.277
same,relative viability,VX-11e + Vorinostat; first compound 0.04 µM,0.725
same,relative viability,VX-11e + Vorinostat; first compound 0.1265 µM,0.63
same,relative viability,VX-11e + Vorinostat; first compound 0.4 µM,0.513
same,relative viability,VX-11e + Vorinostat; first compound 1.265 µM,0.54
same,relative viability,VX-11e + Vorinostat; first compound 4 µM,0.135
same,relative viability,VX-11e + Alpelisib; first compound 0.04 µM,0.857
same,relative viability,VX-11e + Alpelisib; first compound 0.1265 µM,0.89
same,relative viability,VX-11e + Alpelisib; first compound 1.265 µM,0.541
same,relative viability,VX-11e + Alpelisib; first compound 4 µM,0.237
NCI-H650,relative viability,VX-11e + Linsitinib; first compound 0.1265 µM,0.79
same,relative viability,VX-11e + Linsitinib; first compound 0.4 µM,0.957
same,relative viability,VX-11e + Linsitinib; first compound 4 µM,0.88
same,relative viability,VX-11e + Vorinostat; first compound 0.04 µM,0.33
same,relative viability,VX-11e + Vorinostat; first compound 0.1265 µM,0.435
same,relative viability,VX-11e + Vorinostat; first compound 0.4 µM,0.63
same,relative viability,VX-11e + Vorinostat; first compound 1.265 µM,0.608
same,relative viability,VX-11e + Vorinostat; first compound 4 µM,0.533
same,relative viability,VX-11e + Alpelisib; first compound 0.1265 µM,0.961
same,relative viability,VX-11e + Alpelisib; first compound 0.4 µM,1.14
same,relative viability,VX-11e + Alpelisib; first compound 4 µM,0.876
NCI-H1648,relative viability,VX-11e + Vorinostat; first compound 0.1265 µM,0.317
same,relative viability,VX-11e + Vorinostat; first compound 0.4 µM,0.639
same,relative viability,VX-11e + Vorinostat; first compound 1.265 µM,0.31
same,relative viability,VX-11e + Vorinostat; first compound 4 µM,0.291
SW 900,relative viability,VX-11e + Vorinostat; first compound 0.04 µM,0.348
same,relative viability,VX-11e + Vorinostat; first compound 0.1265 µM,0.507
same,relative viability,VX-11e + Vorinostat; first compound 1.265 µM,0.276
same,relative viability,VX-11e + Vorinostat; first compound 4 µM,0.323
ABC-1,relative viability,VX-11e + Linsitinib; first compound 0.04 µM,0.814
same,relative viability,VX-11e + Linsitinib; first compound 0.1265 µM,0.792
same,relative viability,VX-11e + Linsitinib; first compound 0.4 µM,0.597
same,relative viability,VX-11e + Linsitinib; first compound 1.265 µM,0.531
same,relative viability,VX-11e + Linsitinib; first compound 4 µM,0.538
same,relative viability,VX-11e + Vorinostat; first compound 0.04 µM,0.934
same,relative viability,VX-11e + Vorinostat; first compound 0.4 µM,1.22
same,relative viability,VX-11e + Vorinostat; first compound 1.265 µM,0.986
same,relative viability,VX-11e + Vorinostat; first compound 4 µM,1.15
same,relative viability,VX-11e + Alpelisib; first compound 0.04 µM,0.988
same,relative viability,VX-11e + Alpelisib; first compound 0.1265 µM,0.735
same,relative viability,VX-11e + Alpelisib; first compound 0.4 µM,0.832
same,relative viability,VX-11e + Alpelisib; first compound 1.265 µM,0.857
same,relative viability,VX-11e + Alpelisib; first compound 4 µM,0.725

# — the supplement of paper PMC10307832
